Data published in patent publication US20070208005A1, “TETRAHYDROBENZAZEPINES AS ANTAGONISTS AND/OR REVERSE AGONISTS OF THE HISTAMINE H3 RECEPTOR” (priority 2004, published 2007).

Molecular target: T1, histamine H3 receptor (Homo sapiens, UniProt Q9Y5N1)
T1 construct: expressed in transfected cells; host or cells: CHO K1 cells (pSwitch/pGene GeneSwitch system, mifepristone-induced), clone 3H3; membranes
Assay: Histamine H3 functional antagonist assay ([35S]-GTPγS SPA on membranes of H3 cells)
Type: biochemical
Conditions: membrane prepared from cultured H3 cells (CHO K1, human H3); histamine at EC80; averages of a number of experiments; read-out: functional pKi (fpKi), H3 functional antagonist assay (converted)
Excerpt: A membrane preparation containing histamine H3 receptors may be prepared in accordance with the following procedures:
(i) Generation of Histamine H3 Cell Line
DNA encoding the human histamine H3 gene (Huvar, A. et al. (1999) Mol. Pharmacol. 55(6), 1101-1107) was cloned into a holding vector, pcDNA3.1 TOPO (InVitrogen) and its cDNA was isolated from this vector by restriction digestion of plasmid DNA with the enzymes BamH1 and Not-1 and ligated into the inducible expression vector pGene (InVitrogen) digested with the same enzymes. The GeneSwitch™ system (a system where in transgene expression is switched off in the absence of an inducer and switched on in the presence of an inducer) was performed as described in U.S. Pat. Nos. 5,364,791; 5,874,534; and 5,935,934. Ligated DNA was transformed into competent DH5α E. coli host bacterial cells and plated onto Luria Broth (LB) agar containing Zeocin™ (an antibiotic which allows the selection of cells expressing the sh ble gene which is present on pGene and pSwitch) at 50 μg ml^−1. Colonies containing the re-ligated plasmid were identified by restriction analysis. DNA for transfection into mammalian cells was prepared from 250 ml cultures of the host bacterium containing the pGeneH3 plasmid and isolated using a DNA preparation kit (Qiagen Midi-Prep) as per manufacturers guidelines (Qiagen). CHO K1 cells previously transfected with the pSwitch regulatory plasmid (InVitrogen) were seeded at 2×10e6 cells per T75 flask in Complete Medium, containing Hams F12 (GIBCOBRL, Life Technologies) medium supplemented with 10% v/v dialysed foetal bovine serum, L-glutamine, and hygromycin (100 μg ml^−1), 24 hours prior to use. Plasmid DNA was transfected into the cells using Lipofectamine plus according to the manufacturers guidelines (InVitrogen). 48 hours post transfection cells were placed into complete medium supplemented with 500 μg ml^−1 Zeocin™.
10-14 days post selection 10 nM Mifepristone (InVitrogen), was added to the culture medium to induce the expression of the receptor. 18 hours post induction cells were detached from the flask using ethylenediamine tetra-acetic acid (EDTA; 1:5000; InVitrogen), following several washes with phosphate buffered saline pH 7.4 and resuspended in Sorting Medium containing Minimum Essential Medium (MEM), without phenol red, and supplemented with Earles salts and 3% Foetal Clone II (Hyclone). Approximately 1×10e7 cells were examined for receptor expression by staining with a rabbit polyclonal antibody, 4a, raised against the N-terminal domain of the histamine H3 receptor, incubated on ice for 60 minutes, followed by two washes in sorting medium. Receptor bound antibody was detected by incubation of the cells for 60 minutes on ice with a goat anti rabbit antibody, conjugated with Alexa 488 fluorescence marker (Molecular Probes). Following two further washes with Sorting Medium, cells were filtered through a 50 μm Filcon™ (BD Biosciences) and then analysed on a FACS Vantage SE Flow Cytometer fitted with an Automatic Cell Deposition Unit. Control cells were non-induced cells treated in a similar manner. Positively stained cells were sorted as single cells into 96-well plates, containing Complete Medium containing 500 μg ml^−1 Zeocin™ and allowed to expand before reanalysis for receptor expression via antibody and ligand binding studies. One clone, 3H3, was selected for membrane preparation.
(ii) Membrane Preparation from Cultured Cells
All steps of the protocol are carried out at 4° C. and with pre-cooled reagents. The cell pellet is resuspended in 10 volumes of homogenisation buffer (50 mM N-2-hydroxyethylpiperazine-N′-2-ethanesulfonic acid (HEPES), 1 mM ethylenediamine tetra-acetic acid (EDTA), pH 7.4 with KOH, supplemented with 10e-6M leupeptin (acetyl-leucyl-leucyl-arginal; Sigma L2884), 25 μg/ml bacitracin (Sigma B0125), 1 mM phenylmethylsulfonyl fluoride (PMSF) and 2×10e-6M pepstain A (Sigma)). […]

T1 sequence (Q9Y5N1 whole entry): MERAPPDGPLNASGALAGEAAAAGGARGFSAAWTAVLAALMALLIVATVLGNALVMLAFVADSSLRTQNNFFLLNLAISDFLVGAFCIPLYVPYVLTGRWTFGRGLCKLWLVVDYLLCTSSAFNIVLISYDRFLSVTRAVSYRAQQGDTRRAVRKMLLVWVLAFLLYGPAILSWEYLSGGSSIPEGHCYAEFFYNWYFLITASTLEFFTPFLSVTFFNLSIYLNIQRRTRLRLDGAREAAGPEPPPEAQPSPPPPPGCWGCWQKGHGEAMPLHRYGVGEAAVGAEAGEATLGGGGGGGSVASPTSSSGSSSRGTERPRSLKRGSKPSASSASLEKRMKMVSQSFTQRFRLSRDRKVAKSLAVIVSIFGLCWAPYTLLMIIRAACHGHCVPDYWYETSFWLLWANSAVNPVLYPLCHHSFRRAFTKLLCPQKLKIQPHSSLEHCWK

Ki [nM] | Structure (SMILES)
< 0.316 | N#Cc1ccc(Cc2ccc3c(c2)CCN(C2CCC2)CC3)cc1 [Example E1, 4-[(3-Cyclobutyl-2,3,4,5-tetrahydro-1H-3-benzazepin-7-yl)methyl]benzonitrile]
< 3.16 | O=C1CCCN1c1ccc(Cc2ccc3c(c2)CCN(C2CCC2)CC3)nc1 [Example E5, 1-{6-[(3-cyclobutyl-2,3,4,5-tetrahydro-1H-3-benzazepin-7-yl)methyl]-3-pyridinyl}-2-pyrrolidinone]
< 3.16 | N#Cc1ccc(Cc2ccc3c(c2)CCN(C2CCC2)CC3)cn1 [Example E12, 5-[(3-Cyclobutyl-2,3,4,5-tetrahydro-1H-3-benzazepin-7-yl)methyl]-2-pyridinecarbonitrile]
< 0.316 | Cc1noc(-c2ccc(Cc3ccc4c(c3)CCN(C3CCC3)CC4)cc2)n1 [Example E13, 3-Cyclobutyl-7-{[4-(3-methyl-1,2,4-oxadiazol-5-yl)phenyl]methyl}-2,3,4,5-tetrahydro-1H-3-benzazepine]
< 3.16 | Cc1noc(-c2ccc(Cc3ccc4c(c3)CCN(C3CCC3)CC4)cn2)n1 [Example E14, 3-Cyclobutyl-7-{[6-(3-methyl-1,2,4-oxadiazol-5-yl)-3-pyridinyl]methyl}-2,3,4,5-tetrahydro-1H-3-benzazepine]
< 3.16 | Cc1noc(-c2cnc(Cc3ccc4c(c3)CCN(C3CCC3)CC4)cn2)n1 [Example E15, 3-Cyclobutyl-7-{[5-(3-methyl-1,2,4-oxadiazol-5-yl)-2-pyrazinyl]methyl}-2,3,4,5-tetrahydro-1H-3-benzazepine]
< 3.16 | Cc1noc(-c2ccc(Cc3ccc4c(c3)CCN(C3CCC3)CC4)nc2)n1 [Example E16, 3-Cyclobutyl-7-{[5-(3-methyl-1,2,4-oxadiazol-5-yl)-2-pyridinyl]methyl}-2,3,4,5-tetrahydro-1H-3-benzazepine]
< 3.16 | CN(C)C(=O)c1ccc(Cc2ccc3c(c2)CCN(C2CCC2)CC3)cc1 [Example E17, 4-[(3-Cyclobutyl-2,3,4,5-tetrahydro-1H-3-benzazepin-7-yl)methyl]-N,N-dimethylbenzamide]
< 3.16 | O=C(c1ccc(Cc2ccc3c(c2)CCN(C2CCC2)CC3)cc1)N1CCCCC1 [Example E18, 3-Cyclobutyl-7-{[4-(1-piperidinylcarbonyl)phenyl]methyl}-2,3,4,5-tetrahydro-1H-3-benzazepine]
< 3.16 | O=C(c1ccc(Cc2ccc3c(c2)CCN(C2CCC2)CC3)cc1)N1CCOCC1 [Example E19, 3-Cyclobutyl-7-{[4-(4-morpholinylcarbonyl)phenyl]methyl}-2,3,4,5-tetrahydro-1H-3-benzazepine]
< 3.16 | O=C(c1cnc(Cc2ccc3c(c2)CCN(C2CCC2)CC3)cn1)N1CCCC1 [Example E20, 3-Cyclobutyl-7-{[5-(1-pyrrolidinylcarbonyl)-2-pyrazinyl]methyl}-2,3,4,5-tetrahydro-1H-3-benzazepine]
< 3.16 | CC(C)NC(=O)c1cnc(Cc2ccc3c(c2)CCN(C2CCC2)CC3)cn1 [Example E21, 5-[(3-Cyclobutyl-2,3,4,5-tetrahydro-1H-3-benzazepin-7-yl)methyl]-N-(1-methylethyl)-2-pyrazinecarboxamide]
< 3.16 | CN(C)C(=O)c1cnc(Cc2ccc3c(c2)CCN(C2CCC2)CC3)cn1 [Example E22, 5-[(3-Cyclobutyl-2,3,4,5-tetrahydro-1H-3-benzazepin-7-yl)methyl]-N,N-dimethyl-2-pyrazinecarboxamide]
< 3.16 | O=C(NCC(F)(F)F)c1cnc(Cc2ccc3c(c2)CCN(C2CCC2)CC3)cn1 [Example E23, 5-[(3-Cyclobutyl-2,3,4,5-tetrahydro-1H-3-benzazepin-7-yl)methyl]-N-(2,2,2-trifluoroethyl)-2-pyrazinecarboxamide]
< 3.16 | N#CCNC(=O)c1cnc(Cc2ccc3c(c2)CCN(C2CCC2)CC3)cn1 [Example E24, N-(Cyanomethyl)-5-[(3-cyclobutyl-2,3,4,5-tetrahydro-1H-3-benzazepin-7-yl)methyl]-2-pyrazinecarboxamide]
< 3.16 | CNC(=O)c1ccc(Cc2ccc3c(c2)CCN(C2CCC2)CC3)cn1 [Example E26, 5-[(3-Cyclobutyl-2,3,4,5-tetrahydro-1H-3-benzazepin-7-yl)methyl]-N-methyl-2-pyridinecarboxamide]
< 3.16 | NC(=O)c1ccc(Cc2ccc3c(c2)CCN(C2CCC2)CC3)cn1 [Example E27, 5-[(3-Cyclobutyl-2,3,4,5-tetrahydro-1H-3-benzazepin-7-yl)methyl]-2-pyridinecarboxamide]
< 3.16 | O=C1CCCN1c1ccc(Cc2ccc3c(c2)CCN(C2CCC2)CC3)cc1 [Example E28, 1-{4-[(3-Cyclobutyl-2,3,4,5-tetrahydro-1H-3-benzazepin-7-yl)methyl]phenyl}-2-pyrrolidinone]
< 3.16 | O=C1CCCN1c1ccc(Cc2ccc3c(c2)CCN(C2CCC2)CC3)cn1 [Example E29, 1-{5-[(3-Cyclobutyl-2,3,4,5-tetrahydro-1H-3-benzazepin-7-yl)methyl]-2-pyridinyl}-2-pyrrolidinone]
< 3.16 | c1cnc(Cc2ccc3c(c2)CCN(C2CCC2)CC3)cn1 [Example E30, 3-Cyclobutyl-7-(2-pyrazinylmethyl)-2,3,4,5-tetrahydro-1H-3-benzazepine]
< 0.316 | O=C1CCCN1c1cnc(Cc2ccc3c(c2)CCN(C2CCC2)CC3)cn1 [Example E31, 1-{5-[(3-Cyclobutyl-2,3,4,5-tetrahydro-1H-3-benzazepin-7-yl)methyl]-2-pyrazinyl}-2-pyrrolidinone]
< 3.16 | CC(=O)Nc1cnc(Cc2ccc3c(c2)CCN(C2CCC2)CC3)cn1 [Example E32, N-{5-[(3-Cyclobutyl-2,3,4,5-tetrahydro-1H-3-benzazepin-7-yl)methyl]-2-pyrazinyl}acetamide]
< 0.316 | CNC(=O)c1cnc(Cc2ccc3c(c2)CCN(C2CCC2)CC3)cn1 [Example E33, 5-[(3-Cyclobutyl-2,3,4,5-tetrahydro-1H-3-benzazepin-7-yl)methyl]-N-methyl-2-pyrazinecarboxamide]
< 3.16 | CCNC(=O)c1cnc(Cc2ccc3c(c2)CCN(C2CCC2)CC3)cn1 [Example E34, 5-[(3-Cyclobutyl-2,3,4,5-tetrahydro-1H-3-benzazepin-7-yl)methyl]-N-ethyl-2-pyrazinecarboxamide]
< 3.16 | CNC(=O)c1cnc(Cc2ccc3c(c2)CCN(C2CCCC2)CC3)cn1 [Example E35, 5-[(3-Cyclopentyl-2,3,4,5-tetrahydro-1H-3-benzazepin-7-yl)methyl]-N-methyl-2-pyrazinecarboxamide]
< 3.16 | O=C1CCCN1c1ccc(Cc2ccc3c(c2)CCN(C2CCCC2)CC3)cc1 [Example E36, 1-{4-[(3-Cyclopentyl-2,3,4,5-tetrahydro-1H-3-benzazepin-7-yl)methyl]phenyl}-2-pyrrolidinone]
< 3.16 | O=C1CCCN1c1ccc(Cc2ccc3c(c2)CCN(C2CCCC2)CC3)cn1 [Example E37, 1-{5-[(3-cyclopentyl-2,3,4,5-tetrahydro-1H-3-benzazepin-7-yl)methyl]-2-pyridinyl}-2-pyrrolidinone]
< 3.16 | O=C1OCCN1c1ccc(Cc2ccc3c(c2)CCN(C2CCC2)CC3)cn1 [Example E39, 3-{5-[(3-Cyclobutyl-2,3,4,5-tetrahydro-1H-3-benzazepin-7-yl)methyl]-2-pyridinyl}-1,3-oxazolidin-2-one]
< 3.16 | CN1CCN(c2ccc(Cc3ccc4c(c3)CCN(C3CCC3)CC4)cn2)C1=O [Example E40, 1-{5-[(3-Cyclobutyl-2,3,4,5-tetrahydro-1H-3-benzazepin-7-yl)methyl]-2-pyridinyl}-3-methyl-2-imidazolidinone]
